Source: paper PMC6522524 (Nature Communications, 2019)
Values joined by “and” are separate entries in the source; they are usually repeats but may differ in a detail not shown here. Equal values may be shown once. “Also recorded” adds a separate entry of the source. Read-outs that look alike come from different tables or passages of the source.

Assays:
[1] = tested on: HBV (ayw subtype, genotype D) replicon in HepG2.2.15 cells; test: microbe, parasite or virus in culture; assay type: cell-based, Hepatitis B virus; conditions: Hepatitis B virus
[2] = tested on: HBV (pHBV1.2× adr) in transfected HepG2 cells; test: microbe, parasite or virus in culture; assay type: cell-based, Hepatitis B virus; conditions: Hepatitis B virus, HepG2, 144 h; HBV1.2× adr transfected cells, 6 days; read-out: IC50, HBV DNA secretion
[3] = molecular target: HBV core protein (pCDNA3-Core, Y118 wild-type) in Huh-7 cells (Hepatitis B virus genotype C, UniProt P0C6H6); test: cell-based; assay type: cell-based
in vitro [4] = assay type: cell-based, human; conditions: human, Cell viability(%)
Protocol: Supplementary Fig. 11. Effect of FBS serum iron level on Huh-7, HepG2, and HepG2.2.15 cell
a Cells were maintained in medium supplemented with 2% FBS or 10% FBS for 1 day and treated with
After 6 days, cytotoxicity was measured. b Cells were treated with
the ± SD. *p < 0.05 by unpaired two-tailed Student’s t-test.

[5] = tested on: HBsAg in HepG2 cells transfected with pHBV1.2×; test: Secreted HBsAg ELISA, HepG2 cells transfected with pHBV1.2×; assay type: cell-based, Hepatitis B virus
Protocol: Secreted HBsAg (f, i respectively) was quantified by ELISA.
An HBsAg ELISA kit (KA0286, Abnova) was used to quantify HBsAg protein. Briefly, culture media were incubated in individual wells of the capture plates for 2 h. After washing, horseradish peroxidase-labeled rabbit anti-HBV surface antibody was added, followed by incubation for an additional 2 h. The substrate solution was added for 15–60 min and absorbance at 450 nm was measured.

[6] = tested on: intracellular HBV DNA in HepG2.2.15 and HBV 1.2X adr transfected HepG2 cells; test: Southern blot analysis of intracellular HBV DNA; assay type: cell-based, Hepatitis B virus; conditions: Fig. 4c
Text: HBV DNA was separated on a 1% agarose gel, blotted onto a nylon membrane (Hybond N + , RPN203B, GE Healthcare), and hybridized with a biotin-labeled full length HBV fragment prepared with the BioPrime™ DNA labeling system (18094011, ThermoFisher).

BALB/c male mice = conditions: mouse, in vivo, po
Protocol: Five mice were included in each group. Mortality was monitored daily, and bodyweight was measured every other day. On day 28, blood was taken from the orbital sinus, and white blood cells, red blood cells and platelets were counted. Blood urea nitrogen, creatinine, glucose, total bilirubin, total cholesterol, triglyceride, albumin, total protein, aspartate aminotransferase, alanine aminotransferase (ALT), sodium, potassium, and chloride were measured. Urinalysis was performed including urobilinogen, glucose, bilirubin, ketone, specific gravity, blood, pH, protein, nitrate, and leukocytes.
Supplementary Table 3. Mean numbers of blood cells, and parameters for kidney and liver
Data are expressed as means ± standard deviations.
Abbreviations: WBC, white blood cell, AST, aspartate transaminase; ALT, alanine transaminase; ALP,
alkaline phosphatase; BUN, blood urea nitrogen; Na, sodium; K, potassium; Cl. Chloride; S.G, specific

[7] = tested on: HBV (genotype D) in PXB mice; conditions: mouse, in vivo
in vitro [8] = conditions: human, Cell viability(%)
[9] = ref https://www.drugbank.ca/; cited from earlier work
[10] = tested on: HBV cccDNA in HepG2-NTCP cells; test: In vitro HBV infection model, HepG2-NTCP cells: intracellular cccDNA
Protocol: (§1) HepG2 and Huh-7 cells permanently expressing NTCP were generated by infecting them with an NTCP-encoding recombinant retrovirus and isolating GFP-expressing cells.
(§2) The isolated intracellular HBV DNA was subjected to PCR with an HBV DNA primer and probe set (Supplementary Table 1). cccDNA was isolated by the Hirt extraction method[54]. Briefly, the cells were lysed in SDS lysis buffer (50 mM Tris-HCl, pH 8.0, 10 mM EDTA, 150 mM NaCl, 1% SDS), and the lysates were mixed with KCl to a final concentration of 0.5 M. After incubation at 4 °C for 30 min, each lysate was centrifuged and the supernatant was extracted three times with phenol and once with chloroform. The DNA was then recovered by ethanol precipitation, and treated with T5 nuclease (10 U per μg for 0.5 h, M0363, New England Biolabs), and the enzyme was subsequently heat-denatured at 70 °C. The isolated cccDNA was subjected to PCR with a cccDNA primer and probe set (Supplementary Table 1).
(§3) HepG2-NTCP and Huh-7-NTCP cells were cultured in 12-well plates with the indicated compound(s) for 4 h, after which the cells were infected with HBV particles (10^7 viral genome equivalent per mL, genotype D) and treated with the indicated compound(s) for another 16 h. […]
(§4) Quantitative PCR with an HBV DNA primer and probe set was used to measure intracellular
(§5) cccDNA. The data are expressed as means ± SDs. […]

[11] = tested on: HBV cccDNA in Huh-7-NTCP cells; test: In vitro HBV infection model, Huh-7-NTCP cells: intracellular cccDNA
Protocol: as §1, §2, §3, §4, §5

[12] = HepG2.2.15, 144 h, read-out: Relative secreted HBV DNA level (Folds), AVERAGE
[13] = HepG2.2.15, 144 h, read-out: Relative secreted HBV DNA level (Folds), individual samples
[14] = Huh-7, read-out: Relative intensity (Folds), intracellular capsid, AVERAGE
[15] = Huh-7, read-out: Relative intensity (Folds), intracellular capsid, individual samples

HBV core protein (pCDNA3-Core, Y118 wild-type) in Huh-7 cells, sequence (P0C6H6 whole entry): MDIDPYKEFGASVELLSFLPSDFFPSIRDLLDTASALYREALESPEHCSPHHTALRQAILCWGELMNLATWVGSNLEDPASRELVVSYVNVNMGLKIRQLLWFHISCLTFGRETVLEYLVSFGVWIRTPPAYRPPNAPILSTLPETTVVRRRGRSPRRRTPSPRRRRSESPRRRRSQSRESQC

Cc1cc(C2CCCCC2)n(O)c(=O)c1 [Ciclopirox, 6-cyclohexyl-1-hydroxy-4-methyl-2(1 H)-pyridone]
inhibition at 1 µM ([1]; HepG2.2.15, 72 h, read-out: % of inhibition (ETV =100%), initial screening (3days)): 142%
inhibition at 1 µM ([1]; HepG2.2.15, 144 h, read-out: % of inhibition (ETV =100%), confirmation (6days)): 88.6%
IC50 ([1]; HepG2.2.15, 144 h, read-out: IC50, HBV DNA secretion): 880 ± 70 nM
activity at 0.1 µM [1, 12]: 102%
activity at 0.2 µM [1, 12]: 81.1%
activity at 0.5 µM [1, 12]: 52.1%
activity at 1 µM [1, 12]: 51.6%
activity at 2 µM [1, 12]: 29.1%
activity at 5 µM [1, 12]: 23.5%
activity at 10 µM [1, 12]: 4.49%
activity at 0.1 µM [1, 13]: 102%
activity at 0.2 µM [1, 13]: 83%
activity at 0.5 µM [1, 13]: 48.1%
activity at 1 µM [1, 13]: 49.9%
activity at 2 µM [1, 13]: 29%
IC50 [2]: 750 ± 150 nM
intracellular HBV capsid assembly [3]: inhibited HBV capsid assembly; also recorded: affected intracellular HBV capsid assembly
activity at 0.1 µM [3, 14]: 92.1%
activity at 0.5 µM [3, 14]: 95.1%
activity at 1 µM [3, 14]: 82.9%
activity at 5 µM [3, 14]: 20.4%
activity at 10 µM [3, 14]: 2.39%
activity at 0.1 µM [3, 15]: 90%
activity at 0.5 µM [3, 15]: 92.6%
activity at 5 µM [3, 15]: 17.9%
activity at 10 µM [3, 15]: 2.39%
viability at 0.1 µM (in vitro [4]; AVERAGE): 100%
viability at 0.2 µM (in vitro [4]; AVERAGE): 100%
viability at 0.5 µM (in vitro [4]; AVERAGE): 99.6%
viability at 1 µM (in vitro [4]; AVERAGE): 99.1%
viability at 2 µM (in vitro [4]; AVERAGE): 97.4%
viability at 5 µM (in vitro [4]; AVERAGE): 95.2%
viability at 10 µM (in vitro [4]; AVERAGE): 93.6%
viability at 0.1 µM (in vitro [4]; individual samples): 99.9%
viability at 0.2 µM (in vitro [4]; individual samples): 99.6%
viability at 0.5 µM (in vitro [4]; individual samples): 99.4%
viability at 1 µM (in vitro [4]; individual samples): 98.9%
viability at 2 µM (in vitro [4]; individual samples): 97%
viability at 5 µM (in vitro [4]; individual samples): 93%
viability at 10 µM (in vitro [4]; individual samples): 93.5%
HBsAg production [5]: no effect
intracellular HBV DNA levels (Southern blot) [6]: reduced intracellular HBV DNA levels in a dose-dependent manner
Cl (BALB/c male mice; 1 mg/kg/day): 100.0 ± 1.0 mmol/L
Cl (BALB/c male mice; 5 mg/kg/day): 99.0 ± 1.0 mmol/L
Serum HBV DNA, AVERAGE [7]: 6.24 log copies/mL
Serum HBV DNA, individual samples [7]: 6.248 log copies/mL and 5.238 log copies/mL and 7.238 log copies/mL
cccDNA, AVERAGE [7]: 0.2214 log copies/cell
cccDNA, individual samples [7]: 0.22 log copies/cell and 0.29 log copies/cell and 0.16 log copies/cell
HBV core protein levels in the liver ([7]; po): significantly reduced HBV core protein levels in the liver
HBeAg levels ([7]; po): significantly decreased HBeAg levels
Serum ALT levels ([7]; po): decreased
intrahepatic cccDNA ([7]; po): significantly reduced the amount of intrahepatic cccDNA
serum HBV DNA levels ([7]; po): lowered serum HBV DNA levels significantly
serum HBV DNA levels, combined with TDF ([7]; po): these effects were enhanced when it was combined with TDF
viability at 0.1 µM (in vitro [8]; AVERAGE): 98.8%
viability at 0.2 µM (in vitro [8]; AVERAGE): 102%
viability at 0.5 µM (in vitro [8]; AVERAGE): 97.7%
viability at 1 µM (in vitro [8]; AVERAGE): 98.7%
viability at 2 µM (in vitro [8]; AVERAGE): 99.1%
viability at 0.1 µM (in vitro [8]; individual samples): 98.8%
viability at 0.2 µM (in vitro [8]; individual samples): 102%
viability at 0.5 µM (in vitro [8]; individual samples): 97.6%
viability at 1 µM (in vitro [8]; individual samples): 98.6%
viability at 2 µM (in vitro [8]; individual samples): 99%
pKa value (acidic) [9]: 6.84
cccDNA levels [10]: dropped markedly
cccDNA levels [11]: dropped markedly
